Here are results for nine compounds from patent publication US12006332B2, “Aminopyrimidine derivatives as phosphatidylinositol phosphate kinase inhibitors” (HiberCell, Inc., priority 2019, dated 2024).

SMILES strings stand for the structures.

In one assay the target is T1, PIP4K2 B (Homo sapiens, UniProt P78356).
T1 construct: made in house; host or cells: E. coli
T1 sequence (P78356 1-416): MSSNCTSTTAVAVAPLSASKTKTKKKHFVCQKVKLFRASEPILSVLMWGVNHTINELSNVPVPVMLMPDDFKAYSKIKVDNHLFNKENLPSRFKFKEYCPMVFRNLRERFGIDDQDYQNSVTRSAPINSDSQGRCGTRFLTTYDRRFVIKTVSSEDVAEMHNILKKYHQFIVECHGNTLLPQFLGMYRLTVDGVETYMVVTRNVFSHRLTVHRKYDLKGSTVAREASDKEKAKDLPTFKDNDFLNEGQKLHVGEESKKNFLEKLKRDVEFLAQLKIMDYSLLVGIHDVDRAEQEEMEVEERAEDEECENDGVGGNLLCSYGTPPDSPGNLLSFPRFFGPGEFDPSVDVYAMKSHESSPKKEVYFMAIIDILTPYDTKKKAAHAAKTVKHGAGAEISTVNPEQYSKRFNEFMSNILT
As to the kind of experiment: Kinase Assay-PIP4K2 B (Transcreener FI). Format: biochemical. From the text: GST tagged PIP4KtypeIIA and B enzymes were overexpressed in E. Coli and purified to >80% homogeneity. Phosphatidyl inositol-5-phosphate (PI5P, Cat. #850152, Avanti Polar Lipids Inc.) was used as the lipid substrate and phosphatidyl ethanolamine (DOPE 18:1, Cat. #850725, Avanti Polar Lipids Inc.) was used as the carrier lipid for assays. Ultrapure ATP and GTP was purchased from Bellbrooke Labs. ADP Glo reagents were obtained from Promega. Transcreener FI reagent was obtained from Bellbrooke labs.
• 1. HEPES buffer mix: 200 mM HEPES pH 7.4, 50 mM MgCl2, 0.05% v/v triton X 100 • 2. HNE buffer: 20 mM HEPES, pH 7.4, 100 mM NaCl, 0.5 mM EGTA • 3. H:E buffer: 30 mM HEPES, pH 7.4, 1 mM EGTA
GST-tagged PIP4KtypeIIB (3.4 μl, 2.77 mg/mL) was diluted to 5 mL using HNE buffer to yield 5× enzyme stock (25 nM)
Lipid Preparation: In a 10 mL pyrex glass vial, […] were suspended in 2.5 mL of HEPES buffer mix and 2.5 mL of H:E buffer. The contents were mixed and sonicated for 3 min to yield a translucent lipid stock.
Compound Preparation: Compounds were stored as 5 mM stocks in neat DMSO as room temperature in glass vials. 5 mM stocks were diluted to 2 mM and then serially diluted (3×) in neat DMSO in 96 well polypropylene plates. From the serially diluted stocks, 3 μL was delivered into 250 μL of 25% DMSO (in water) to generate 5× compound stocks. Typically, the highest compound conc. was 24 μM.
The assay volume was kept at 25 μL. To each well of the reaction plate, 10 μL of lipid stock (1:1 ratio PI5P:DOPE) was delivered. This was followed by the addition of 5 μL of compound in 25% DMSO. Then, to each well, 5 μL of 25 nM (5×) typeIIB enzyme was delivered. The contents were mixed well and incubated for 1 h at 27° C. After 1 h, reaction was initiated by adding 5 μL of 500 μM GTP and the contents were mixed well with a multi-channel pipetteman. The final concentration of the reagents are as follows: 50 mM HEPES, pH 7.3, 10 mM MgCl2, 20 mM NaCl, 0.01% v/v triton-X100, 5% DMSO, 100 μM GTP, 80 μM (2 μg) PI5P, 2 μg DOPE, and 5 nM PIP4KIIB Typically, the highest conc. of compounds was 4.8 μM and the lowest conc. was 0.
After 2 h, the reaction was quenched by adding 25 μL of transcreener FI reagent. The contents were incubated at rt for 1 h and the Fluorescence (Ex: 584 Em: 623) was read using Molecular Devices Paradigm plate reader. […] The blanks were averaged and subtracted from all other wells. Using a calibration curve, RFU was converted to μM GDP (product). IC50 was calculated by plotting the residual activity (expressed as % No inhibitor control) vs. log [Inh. conc.].

A further assay relates to MOLM-16. As to the kind of experiment: MOLM-16 EC50 assay. Type of assay: cell-based. As to conditions: MOLM16.
The target of the next assay is T2, PIP4K2A (Homo sapiens, UniProt P48426).
T2 construct: made in house; host or cells: E. coli
T2 sequence (P48426 1-406): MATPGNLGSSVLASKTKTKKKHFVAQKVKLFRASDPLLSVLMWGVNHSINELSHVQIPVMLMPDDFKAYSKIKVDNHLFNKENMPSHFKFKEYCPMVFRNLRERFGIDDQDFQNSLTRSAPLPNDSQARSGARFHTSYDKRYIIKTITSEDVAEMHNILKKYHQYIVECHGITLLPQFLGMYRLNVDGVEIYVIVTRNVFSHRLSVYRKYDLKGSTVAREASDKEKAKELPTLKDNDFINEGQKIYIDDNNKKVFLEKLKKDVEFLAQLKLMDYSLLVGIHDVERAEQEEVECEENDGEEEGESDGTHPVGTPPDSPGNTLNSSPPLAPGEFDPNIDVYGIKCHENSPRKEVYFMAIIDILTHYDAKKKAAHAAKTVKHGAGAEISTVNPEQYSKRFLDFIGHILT
Description: Kinase Assay-PIP4K2 A (ADP-Glo). Format: biochemical. On the procedure: Dilution series of the compounds were prepared in DMSO at 100 times the final assay concentration (n1=n0/3 in 10 points). The compounds were further diluted to three times the assay concentration in assay buffer (20 mM MOPS pH 7.2, 25 mM magnesium chloride, 0.005% Tween 20). 6 μL of the diluted compounds were added to a 384 well assay plate followed by 9 μL of a mix consisting of 4 nM PIP4K2A (full length protein, SignalChem) and 100 μM PI(5)P diC8 (Tebu-Bio). Enzyme and compounds were pre-incubated at room temperature for 15 minutes.
Then 3 μL of a solution containing 60 μM ATP (Promega) in assay buffer was added to the wells containing compound and enzyme and mixing was performed by pipetting several times. The reaction was incubated at room temperature for 1 h. Then 18 μL of ADP-Glo™ Reagent (Promega) was added to stop the kinase reaction and deplete the unconsumed ATP, mixing was performed by pipetting several times. The plate was incubated at room temperature for 40 minutes before addition of 36 μL of Kinase Detection Reagent (Promega) to convert ADP to ATP and introduce luciferase and luciferin to detect ATP. The reaction was incubated at room temperature for 40 minutes before the luminescence was measured in a in a Victor 3V 1420 multilabel counter (Perkin Elmer).
Percent inhibition of the compounds as compared to dimethyl sulfoxide treated control samples was calculated. Compound concentration versus percent inhibition were fitted to generate IC50 values. […]

Turning to `CCN(CC)CCN1CCOc2ncc(Nc3ncc(-c4ccc(N5CCCC5=O)cc4)c(OC)n3)cc21` [Compound 26, 1-{4-[2-({1-[2-(diethylamino)ethyl]-1H,2H,3H-pyrido[2,3-b][1,4]oxazin-7-yl}amino)-4-methoxypyrimidin-5-yl]phenyl}pyrrolidin-2-one], the IC50 against PIP4K2 B and against PIP4K2A was 100 to 1000 nM in each case. This compound also came in with an EC50 in the assay with MOLM-16 of 100 to 1000 nM.

For `COc1nc(Nc2cncc(N3CC[C@@H](N(C)C)C3)c2)ncc1-c1ccc(-c2nnccc2C)cc1` [Compound 34, N-{5-[(3R)-3-(dimethylamino)pyrrolidin-1-yl]pyridin-3-yl}-4-methoxy-5-[4-(4-methylpyridazin-3-yl)phenyl]pyrimidin-2-amine], the IC50 on PIP4K2 B and against PIP4K2A was 10 to 100 nM each time. In the assay on MOLM-16, this compound returned an EC50 of 10 to 100 nM.

For `COc1nc(Nc2cncc(N3CC[C@@H](N(C)C)C3)c2)ncc1-c1ccc(N2CCCC2=O)cc1` [Compound 35, 1-{4-[2-({5-[(3R)-3-(dimethylamino)pyrrolidin-1-yl]pyridin-3-yl}amino)-4-methoxypyrimidin-5-yl]phenyl}pyrrolidin-2-one], the IC50 at PIP4K2 B and at PIP4K2A was 100 to 1000 nM in each case. The EC50 with MOLM-16 fell in the range of 10 to 100 nM.

`COc1nc(Nc2cncc(N(C)CC(=O)N3CCNCC3)c2)ncc1-c1ccc(N2CCCC2=O)cc1` [Compound 36, 1-(4-{4-methoxy-2-[(5-{methyl[2-oxo-2-(piperazin-1-yl)ethyl]amino}pyridin-3-yl)amino]pyrimidin-5-yl}phenyl)pyrrolidin-2-one]: the IC50 lay in the range of 10 to 100 nM against PIP4K2 B and 1 to 10 nM at PIP4K2A. Besides, the EC50 in the assay on MOLM-16 fell in the range of 100 to 1000 nM.

Consider `COc1nc(Nc2cncc(N3CC[C@H](N(C)C)C3)c2)ncc1-c1ccc(-c2nnccc2C)cc1` [Compound 37, N-{5-[(3S)-3-(dimethylamino)pyrrolidin-1-yl]pyridin-3-yl}-4-methoxy-5-[4-(4-methylpyridazin-3-yl)phenyl]pyrimidin-2-amine], for which the IC50 on PIP4K2 B and on PIP4K2A was 10 to 100 nM in each case. In addition, the EC50 in the assay with MOLM-16 lay in the range of 10 to 100 nM.

Take `COc1nc(Nc2cncc(N3CC[C@H](N(C)C)C3)c2)ncc1-c1ccc(N2CCCC2=O)cc1` [Compound 38, 1-{4-[2-({5-[(3S)-3-(dimethylamino)pyrrolidin-1-yl]pyridin-3-yl}amino)-4-methoxypyrimidin-5-yl]phenyl}pyrrolidin-2-one]: the IC50 at PIP4K2 B and against PIP4K2A was 10 to 100 nM in each case. In the assay on MOLM-16, this compound came in with an EC50 of 10 to 100 nM.

Take `COc1nc(Nc2cncc(N(C)CCC(=O)N3CCNCC3)c2)ncc1-c1ccc(N2CCCC2=O)cc1` [Compound 39, 1-(4-{4-methoxy-2-[(5-{methyl[3-oxo-3-(piperazin-1-yl)propyl]amino}pyridin-3-yl)amino]pyrimidin-5-yl}phenyl)pyrrolidin-2-one]: the IC50 against PIP4K2 B and against PIP4K2A was 10 to 100 nM throughout. In addition, the EC50 with MOLM-16 lay within 100 to 1000 nM.

In the case of `COc1nc(Nc2cncc(OCCN3CCC(F)(F)C3)c2)ncc1-c1ccc(-c2nnccc2C)cc1` [Compound 40, N-{5-[2-(3,3-difluoropyrrolidin-1-yl)ethoxy]pyridin-3-yl}-4-methoxy-5-[4-(4-methylpyridazin-3-yl)phenyl]pyrimidin-2-amine], the IC50 against PIP4K2 B and against PIP4K2A was 10 to 100 nM throughout. Also, the EC50 with MOLM-16 is 100 to 1000 nM.

As to `COc1nc(Nc2cncc(OCCN3CCC(F)(F)C3)c2)ncc1-c1ccc(N2CCCC2=O)cc1` [Compound 41, 1-{4-[2-({5-[2-(3,3-difluoropyrrolidin-1-yl)ethoxy]pyridin-3-yl}amino)-4-methoxypyrimidin-5-yl]phenyl}pyrrolidin-2-one], the IC50 against PIP4K2 B and against PIP4K2A was 10 to 100 nM each time. For the same compound, the EC50 with MOLM-16 was 10 to 100 nM.
